Experimental findings from ChEMBL document CHEMBL3045891, “Effects of three neem-based insecticides on diamondback moth (lepidoptera: plutellidae)” (2003) are described below.

Experiment [1] concerns Plutella xylostella. Nature of the experiment: Reduction of oviposition in adult Plutella xylostella (diamondback moth) in aluminium foil assessed as number of egg oviposited after 24 hr by no choice test. Type of experiment: functional, organism-based.
Experiment [2] relates to Plutella xylostella. The experiment in a line: Reduction of oviposition in adult Plutella xylostella (diamondback moth) in cabbage leaves assessed as number of egg oviposited after 24 hr by two choice test. The class given is functional, organism-based.
Experiment [3] has as its system Plutella xylostella. Nature of the experiment: Reduction of oviposition in adult Plutella xylostella (diamondback moth) in cabbage leaves assessed as number of egg oviposited after 24 hr by no choice test. Type of experiment: functional, organism-based.
The subject of experiment [4] is Plutella xylostella. Nature of the experiment: Insecticidal activity against third-instar of Plutella xylostella (diamondback moth) on cabbage leaves assessed as mortality after 5 days. The class given is functional, organism-based.
In experiment [5] the test system is Plutella xylostella. The experiment in a line: Insecticidal activity against larvae of Plutella xylostella (diamondback moth) on cabbage leaves after 5 days. Type of experiment: functional, organism-based.
In experiment [6] the test system is Plutella xylostella. Nature of the experiment: Reduction of oviposition in adult Plutella xylostella (diamondback moth) in aluminium foil assessed as number of egg oviposited after 24 hr by two choice test. The class given is functional, organism-based.
The test system of experiment [7] is Plutella xylostella. Nature of the experiment: Antifeedant activity against larvae of Plutella xylostella (diamondback moth) on cabbage leaves assessed as diameter of larvae after 5 days. The class given is functional.
Experiment [8] has as its system Plutella xylostella. Nature of the experiment: Insecticidal activity against Plutella xylostella (diamondback moth) eggs on cabbage leaves assessed as eggs developed to neonates after 5 days relative to control. The class given is functional.
The subject of experiment [9] is Plutella xylostella. Nature of the experiment: Antifeedant activity against neonates of Plutella xylostella (diamondback moth) on cabbage leaves assessed as leaf disks damage. Type of experiment: functional.
Experiment [10] deals with Plutella xylostella. Nature of the experiment: Antifeedant activity against larvae of Plutella xylostella (diamondback moth) on cabbage leaves assessed as weight of larvae after 5 days. Type of experiment: functional.
In experiment [11] the test system is Plutella xylostella. Nature of the experiment: Antifeedant activity against larvae of Plutella xylostella (diamondback moth) on cabbage leaves assessed as length of larvae after 5 days. The class given is functional.
Experiment [12] relates to Plutella xylostella. Nature of the experiment: Antifeedant activity against third-instar of Plutella xylostella (diamondback moth) on cabbage leaves assessed as leaf disks damage. The class given is functional.
The subject of experiment [13] is Plutella xylostella. Nature of the experiment: Antifeedant activity against second-instar of Plutella xylostella (diamondback moth) on cabbage leaves assessed as leaf disks damage. The class given is functional.
Experiment [14] deals with Plutella xylostella. Nature of the experiment: Antifeedant activity against fourth-instar of Plutella xylostella (diamondback moth) on cabbage leaves assessed as leaf disks damage. The class given is functional.
The subject of experiment [15] is Plutella xylostella. The experiment in a line: Insecticidal activity against neonates of Plutella xylostella (diamondback moth) on cabbage leaves assessed as survival after 5 days. Type of experiment: functional.
Experiment [16] relates to Plutella xylostella. Nature of the experiment: Insecticidal activity against third-instar of Plutella xylostella (diamondback moth) on cabbage leaves assessed as survival after 3 days. The class given is functional.

Calls of active or inactive are those of the source. The calls are words filed in the database; no cut-off is given here.

For the compound `C/C=C(\C)C(=O)O[C@H]1C[C@@H](OC(C)=O)[C@@]2(C(=O)OC)CO[C@H]3[C@@H](O)[C@@](C)([C@]45O[C@@]4(C)[C@@H]4C[C@H]5O[C@@H]5OC=C[C@@]54O)[C@H]4[C@]1(CO[C@]4(O)C(=O)OC)[C@@H]32` (stereo in doubt; form 1), the result with Plutella xylostella [1], in the experiment on Plutella xylostella [2] and in the experiment with Plutella xylostella [3] was inactive. Further, the outcome in the experiment with Plutella xylostella [4], with Plutella xylostella [5] and in the experiment on Plutella xylostella [6] was Active.

For `C/C=C(\C)C(=O)O[C@H]1C[C@@H](OC(C)=O)[C@@]2(C(=O)OC)CO[C@H]3[C@@H](O)[C@@](C)([C@]45O[C@@]4(C)[C@@H]4C[C@H]5O[C@@H]5OC=C[C@@]54O)[C@H]4[C@]1(CO[C@]4(O)C(=O)OC)[C@@H]32` (stereo in doubt; form 2), the result with Plutella xylostella [1], in the experiment on Plutella xylostella [2] and in the experiment on Plutella xylostella [3] was inactive. For the same compound, the result with Plutella xylostella [4], in the experiment with Plutella xylostella [5] and with Plutella xylostella [6] was Active.

In the case of `C/C=C(\C)C(=O)O[C@H]1C[C@@H](OC(C)=O)[C@@]2(C(=O)OC)CO[C@H]3[C@@H](O)[C@@](C)([C@]45O[C@@]4(C)[C@@H]4C[C@H]5O[C@@H]5OC=C[C@@]54O)[C@H]4[C@]1(CO[C@]4(O)C(=O)OC)[C@@H]32` (stereo in doubt; form 1) [AZADIRACHTIN A], the Activity in the experiment with Plutella xylostella [7] is 2 mm; in the experiment on Plutella xylostella [8], 75.2%; in the experiment on Plutella xylostella [9] it was “<=2%”; with Plutella xylostella [10], 0.013 mg; in the experiment with Plutella xylostella [11], 13.5 mm; with Plutella xylostella [12] it was 5.1%. For the same compound, the Activity amounted to 2.1% with Plutella xylostella [13] and 10.1% in the experiment with Plutella xylostella [14].

`C/C=C(\C)C(=O)O[C@H]1C[C@@H](OC(C)=O)[C@@]2(C(=O)OC)CO[C@H]3[C@@H](O)[C@@](C)([C@]45O[C@@]4(C)[C@@H]4C[C@H]5O[C@@H]5OC=C[C@@]54O)[C@H]4[C@]1(CO[C@]4(O)C(=O)OC)[C@@H]32` (stereo in doubt; form 2) [AZADIRACHTIN A]: the Activity in the experiment on Plutella xylostella [7] is 2.5 mm; in the experiment with Plutella xylostella [8] it was 66.2%; with Plutella xylostella [10], 0.012 mg; in the experiment with Plutella xylostella [11], 14.7 mm.

Regarding `C/C=C(\C)C(=O)O[C@H]1C[C@@H](OC(C)=O)[C@@]2(C(=O)OC)CO[C@H]3[C@@H](O)[C@@](C)([C@]45O[C@@]4(C)[C@@H]4C[C@H]5O[C@@H]5OC=C[C@@]54O)[C@H]4[C@]1(CO[C@]4(O)C(=O)OC)[C@@H]32` (stereo in doubt; form 3), the outcome in the experiment on Plutella xylostella [1], in the experiment with Plutella xylostella [2] and in the experiment on Plutella xylostella [3] was inactive. The outcome in the experiment on Plutella xylostella [4], with Plutella xylostella [5] and in the experiment with Plutella xylostella [6] was Active.

`C/C=C(\C)C(=O)O[C@H]1C[C@@H](OC(C)=O)[C@@]2(C(=O)OC)CO[C@H]3[C@@H](O)[C@@](C)([C@]45O[C@@]4(C)[C@@H]4C[C@H]5O[C@@H]5OC=C[C@@]54O)[C@H]4[C@]1(CO[C@]4(O)C(=O)OC)[C@@H]32` (stereo in doubt; form 3) [AZADIRACHTIN A]: the Activity in the experiment with Plutella xylostella [7] was 2.2 mm; with Plutella xylostella [8], 61.6%; in the experiment with Plutella xylostella [10], 0.016 mg; in the experiment on Plutella xylostella [11], 14.8 mm. Moreover, the Survival with Plutella xylostella [15] is 50%; in the experiment with Plutella xylostella [16], less than 60%.
